Assay results: patent US10770169B2, “Method of providing a treatment to a subject based on a dynamic pathway map” (THE REGENTS OF THE UNIVERSITY OF CALIFORNIA, priority 2010, dated 2020)
Like-named read-outs stand apart in the source and are kept apart here.

Assays:
[1] = tested on: luminal, basal, claudin-low and ERBB2AMP breast cancer cell lines; experiment: Associations of clinically relevant subtypes and response (non-parametric ANOVA or t-test on GI50 ranks); type: cell-based, human; details: Table 6; most sensitive subtype, FDR p<0.20
From the text: A central premise of this study is that associations between responses and molecular subtypes observed in preclinical cell line analyses will be recapitulated in the clinic in instances where the predictive molecular features in the cell lines are mirrored in human tumors. We established response-subtype associations by using non-parametric ANOVAs to compare […] values across transcriptional and genomics subtypes.
Differences between GI50s of the groups were compared with a non-parametric ANOVA or t-test, as appropriate, on the ranks. We combined the p-values for the three sets of tests and used false discovery rate (FDR) to correct for multiple testing. For the three-sample test, we performed a post-hoc analysis on the compounds with a significant class effect by comparing each group to all others to determine which group was most sensitive. The p-values for the post-hoc test were FDR-corrected together. In all cases, FDR p<0.20 was deemed significant. […] Analyses were performed in R.

[2] = tested on: panel of 55 breast cancer cell lines; experiment: Cell growth inhibition assay (Cell Titer Glo, 72 h, 9 doses; GI50, TGI, LC50); type: cell-based, human; details: Homo sapiens, read-out: GI50 (converted)

In the case of `CS(=O)(=O)CCNCc1ccc(-c2ccc3ncnc(Nc4ccc(OCc5cccc(F)c5)c(Cl)c4)c3c2)o1` [Lapatinib], the Subtype specificity [1] is reported as “Luminal/ERBB2AMP”, the GI50 ([2]; AU565, cell line AU565, censored GI50 values) is reported as 0.398 µM and the GI50 ([2]; AU565, cell line AU565) is reported as 0.398 µM. It also gave a GI50 ([2]; BT-20, cell line BT20) of 16.6 µM, a GI50 ([2]; BT-474, cell line BT474, censored GI50 values) of 0.398 µM and a GI50 ([2]; BT-474, cell line BT474) of 0.398 µM. It also gave a GI50 ([2]; BT-483, cell line BT483) of 16.6 µM, a GI50 ([2]; BT-549, cell line BT549) of 16.6 µM and a GI50 ([2]; CAMA-1, cell line CAMA1) of 16.6 µM. It also gave a GI50 ([2]; HCC38, cell line HCC38) of 16.6 µM, a GI50 ([2]; HCC70, cell line HCC70) of 11 µM and a GI50 ([2]; HCC202, cell line HCC202, censored GI50 values) of 0.759 µM. It also gave a GI50 ([2]; HCC202, cell line HCC202) of 0.759 µM, a GI50 ([2]; HCC1143, cell line HCC1143) of 16.6 µM and a GI50 ([2]; HCC1187, cell line HCC1187) of 16.6 µM. The GI50 ([2]; HCC1395, cell line HCC1395) was 16.6 µM, the GI50 ([2]; HCC1419, cell line HCC1419, censored GI50 values) was 0.269 µM and the GI50 ([2]; HCC1419, cell line HCC1419) was 0.269 µM. For the same molecule, the GI50 ([2]; HCC1428, cell line HCC1428) was 16.6 µM, the GI50 ([2]; HCC1500, cell line HCC1500) was 16.6 µM and the GI50 ([2]; HCC1806, cell line HCC1806) was 16.6 µM. For the same molecule, the GI50 ([2]; HCC1937, cell line HCC1937) was 16.6 µM, the GI50 ([2]; HCC1954, cell line HCC1954, censored GI50 values) was 2.75 µM and the GI50 ([2]; HCC1954, cell line HCC1954) was 2.75 µM. It also gave a GI50 ([2]; MCF7, cell line MCF7) of 16.6 µM, a GI50 ([2]; MDA-MB-157, cell line MDAMB157) of 16.6 µM and a GI50 ([2]; MDA-MB-175-VII, cell line MDAMB175VII, censored GI50 values) of 0.933 µM. It also gave a GI50 ([2]; MDA-MB-231, cell line MDAMB231) of 16.6 µM, a GI50 ([2]; MDA-MB-361, cell line MDAMB361, censored GI50 values) of 8.91 µM and a GI50 ([2]; MDA-MB-361, cell line MDAMB361) of 8.91 µM. It also gave a GI50 ([2]; MDA-MB-436, cell line MDAMB436) of 16.6 µM, a GI50 ([2]; MDA-MB-453, cell line MDAMB453, censored GI50 values) of 8.91 µM and a GI50 ([2]; MDA-MB-453, cell line MDAMB453) of 8.91 µM. For the same molecule, the GI50 ([2]; MDA-MB-468, cell line MDAMB468) was 16.6 µM, the GI50 ([2]; SK-BR-3, cell line SKBR3, censored GI50 values) was 0.513 µM and the GI50 ([2]; SK-BR-3, cell line SKBR3) was 0.513 µM. For the same molecule, the GI50 ([2]; SUM52PE, cell line SUM52PE) was 16.6 µM, the GI50 ([2]; SUM225CWN, cell line SUM225CWN, censored GI50 values) was 0.692 µM and the GI50 ([2]; SUM225CWN, cell line SUM225CWN) was 0.692 µM. The GI50 ([2]; T47D, cell line T47D) was 16.6 µM, the GI50 ([2]; UACC-812, cell line UACC812, censored GI50 values) was 0.457 µM and the GI50 ([2]; UACC-812, cell line UACC812) was 0.457 µM. The GI50 ([2]; UACC-893, cell line UACC893, censored GI50 values) was 1.82 µM, the GI50 ([2]; UACC-893, cell line UACC893) was 1.82 µM and the GI50 ([2]; ZR-75-1, cell line ZR751) was 16.6 µM. The GI50 ([2]; ZR-75B, cell line ZR75B) was 16.6 µM, the GI50 ([2]; cell line 600MPE) was 16.6 µM and the GI50 ([2]; cell line HCC2185, censored GI50 values) was 3.8 µM. For the same molecule, the GI50 ([2]; cell line HCC2185) was 3.8 µM, the GI50 ([2]; cell line HCC3153) was 16.6 µM and the GI50 ([2]; cell line MDAMB175V) was 0.933 µM. It also gave a GI50 ([2]; cell line SUM1315MO) of 15.5 µM.
